The values that follow come from US10844049B2, “GLP-1R agonists and uses thereof” (QILU REGOR THERAPEUTICS INC., priority 2018, dated 2020).

In experiment [1] the target is T1, GLP1R (Homo sapiens, UniProt P43220). Kind of experiment: β-Arrestin-mediated GLP1R internalization assay (PathHunter engineered U2OS cells). In kind it is cell-based. Details: host or cells: PathHunter engineered U2OS cells. Particulars: averaged Bmax, percentage of control GLP-1 (7-37), highest concentration tested. An excerpt:
A similar assay can also be used to assess the extent of signal attenuation due to GLP-1R internalization (the β-Arrestin Internalization Assay). In this assay, activated GLP1R Internalization cells were engineered to co-express an untagged GLP1R, Enzyme Acceptor (EA) tagged β-Arrestin, and a ProLink™ (PK) tag localized to the endosomes. Activation of the GLP1R induces β-Arrestin recruitment, which leads to internalization of the Receptor/Arrestin-EA complex in PK-tagged endosomes. This forces complementation of the two β-galactosidase enzyme fragments (EA and PK) to form a functional enzyme that hydrolyzes substrate to generate a chemiluminescent signal. These cells have been modified to prevent long term propagation and expansion using a proprietary compound that has no apparent effect on assay performance.
Specifically, PathHunter engineered U2OS cells from the assay kit (Cat #93-0724E3CP0L) were plated at a density of 2000 cells/20 μL/well in a 384-well white/clear bottom plates (Greiner Cat #781098). Frozen cells were quickly thawed and 10 mL of cell plating medium (provided by the kit) was added to thawed cells. Cells were stored in a 37° C. incubator and kept for approximately 48 hours until ready for the assay.
Reference and test compounds were dissolved in 100% DMSO. 5× concentration of an agonist was prepared in serum free DMEM (Thermo Cat #11965). 5 μL of this solution was added to 20 μL cell medium in assay plate for a final top concentration of 10 μM. Plates were incubated at 37° C. for 180 min.
Following 180 min incubation, detection reagents were made up by combining 1 part Galacton Star Substrate with 5 parts Emerald II™ Solution, and 19 parts of PathHunter Cell Assay Buffer, respectively. 12.5 μL detection reagent was added to each well. The plates were then incubated at room temperature for 60 min. Plates were then read on Envision for 0.1 sec/well.
(§1) EC50 determinations were made from agonist dose-response curves analyzed with a curve fitting program using a 4-parameter logistic dose response equation.

Experiment [2] has as its target T1, GLP1R. The experiment is described as follows: GLP-1R/β-Arrestin recruitment assay (PathHunter eXpress GLP1R CHO-K1 β-Arrestin GPCR Assay). The format is cell-based. Details: host or cells: PathHunter CHO-K1 GLP1R β-Arrestin cells. Particulars: averaged Bmax, percentage of control GLP-1 (7-37), highest concentration tested.
From the text: GLP-1R agonist activity with respect to β-arrestin recruitment can be determined with a cell-based functional assay using PathHuntcr eXpress GLP1R CHO-K1 β-Arrestin GPCR Assay kit (DiscovcrX Cat #93-0300E2CP0M).
The PathHunter β-Arrestin GPCR assay technology utilizes a β-galactosidase (β-gal) enzyme that is split into two fragments, the smaller Enzyme Donor (ED) and the larger Enzyme Acceptor (EA). These fragments can be fused to two proteins that may interact with each other, such as EA-β-Arrestin and ED-GLP-1R. The fusions can be stably expressed in a test cell line, such as the PathHunter CHO-K1 GLP1R β-Arrestin cells described below.
Independently, these fragment fusions have no β-gal activity; however, in solution or in a living cell, they can be brought together and complement to form an active β-gal enzyme due to the interaction between the fused proteins, thus generating a chemiluminescent signal in the presence of a suitable β-gal substrate.
In this experiment, PathHunter CHO-K1 GLP1R β-Arrestin cells from the assay kit were plated at a density of 1000 or 2000 cells/20 μl/well in a 384-well white/clear bottom plates (Greiner Cat #781098). Frozen cells were quickly thawed and 10 mL of cell plating medium (provided by the kit) was added to thawed cells. Cells were stored in a 37° C. incubator under 5% CO2 and kept for approximately 48 hours until ready to ran the assay.
Reference and test compounds were dissolved in 100% DMSO. 5× concentration of an agonist was prepared in serum free DMEM (Thermo Cat #11965). 5 μL of this solution was added to 20 μL cell medium in assay plate for a final top concentration of 10 μM. Plates were then incubated at 37° C. under 5% CO2 for 90 min.
Following 90 min incubation, detection reagents were made up by combining 1 part Galacton Star Substrate with 5 parts Emerald II™ Solution, and 19 parts of PathHunter Cell Assay Buffer, respectively. 12.5 μL detection reagent was added to each well. The plates were then incubated at room temperature in dark for 60 min. Plates were then read on Envision for 0.1 sec/well.
as §1
Cells were plated at a density of 1000 or 2000 cells/20 μL/well. Frozen cells were quickly thawed and added to 10 mL of cell plating medium. Cells were stored in a 37° C. incubator under 5% CO2 and left for approximately 48 hours until ready to run the assay.
• 1) Reference agonist compound GLP1 (7-37): dissolved with DMSO to make 1 mM stock solutions, aliquoted and stored at −80° C. • 2) Test compounds (such as the compounds of the invention) came solubilized in 100% DMSO.
Prepare 10× concentration of an agonist in serum free DMEM, and add all solutions into the compound plate. 2.5 μL of this solution was added to 20 μL cell medium in assay plate for a final top concentration of 10 μM. Plates were incubated at 37° C. under 5% CO2 for 30 min. An additional 2.5 μL of Buffer was added to the entire plate for agonist mode and incubated at 37° C. for another 90 min.
Following 90 min incubation, detection reagents were made up as described. 12.5 μL was added to all wells. The plates were then incubated at room temperature in dark for 60 min. Plates were then read on Envision for 0.1 sec/well.
Data analysis: GraphPad Prism 6 was used for establishment of progression curve. EC50S or IC50s were determined by 4-parameter logistic dose response equation.

T1 sequence (P43220 24-463): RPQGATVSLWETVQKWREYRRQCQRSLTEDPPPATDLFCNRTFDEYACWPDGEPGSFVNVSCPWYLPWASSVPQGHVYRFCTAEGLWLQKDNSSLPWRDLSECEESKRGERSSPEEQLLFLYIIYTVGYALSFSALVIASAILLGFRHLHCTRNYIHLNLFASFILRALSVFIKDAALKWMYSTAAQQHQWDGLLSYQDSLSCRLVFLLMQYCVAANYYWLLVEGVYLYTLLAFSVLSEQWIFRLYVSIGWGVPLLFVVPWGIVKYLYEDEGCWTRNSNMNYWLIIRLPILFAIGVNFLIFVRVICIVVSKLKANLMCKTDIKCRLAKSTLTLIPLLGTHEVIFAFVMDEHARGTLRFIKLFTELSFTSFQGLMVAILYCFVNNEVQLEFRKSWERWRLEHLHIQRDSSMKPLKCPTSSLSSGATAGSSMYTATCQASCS

With `O=C(O)c1ccc2nc(CN3CCC(c4ccnc(OCc5ccc(Cl)cc5F)n4)CC3)n(C[C@@H]3CCO3)c2c1` [Compound 18, (S)-2-((4-(2-((4-chloro-2-fluorobenzyl)oxy)pyrimidin-4-yl)piperidin-1-yl)methyl)-1-(oxetan-2-ylmethyl)-1H-benzo[d]imidazole-6-carboxylic acid], the “Bmax (POC)” value in experiment [1] was 21.3 ± 3.47 POC; in experiment [2], 26.2 ± 1.55 POC.
As for `N#Cc1ccc(COc2cccc(C3=CCN(Cc4nc5ccc(C(=O)O)cc5n4C[C@@H]4CCO4)CC3)n2)c(F)c1` [Compound 19, (S)-2-((4-(6-(4-cyano-2-fluorobenzyloxy)pyridin-2-yl)-5,6-dihydropyridin-1(2H)-yl)methyl)-1-(oxetan-2-ylmethyl)-1 h-benzo[d]imidazole-6-carboxylic add], the “Bmax (POC)” value in experiment [1] came out at 20.1 POC; in experiment [2], 26.0 ± 2.78 POC.
For `O=C(O)c1ccc2nc(CN3CCC(c4cncc(OCc5ccc(Cl)cc5F)n4)CC3)n(C[C@@H]3CCO3)c2c1` [Compound 21, (S)-2-((4-(6-(4-chloro-2-fluorobenzyloxy)pyrazin-2-yl)piperidin-1-yl)methyl)-1-(oxetan-2-ylmethyl)-1 h-benzo[d]imidazole-6-carboxylic acid] the same measures were 6.64 ± 1.55 POC and 19.0 ± 0.982 POC.
Regarding `N#Cc1ccc(COc2cncc(C3CCN(Cc4nc5ccc(C(=O)O)cc5n4C[C@@H]4CCO4)CC3)n2)c(F)c1` [Compound 22, (S)-2-((4-(6-(4-cyano-2-fluorobenzyloxy)pyrazin-2-yl)piperidin-1-yl)methyl)-1-(oxetan-2-ylmethyl)-1 h-benzo[d]imidazole-6-carboxylic acid], the figures for the “Bmax (POC)” value in experiment [1] and in experiment [2] were 7.40 ± 6.97 POC and 10.9 ± 0.0317 POC, respectively.
For `N#Cc1ccc(COc2cncc(C3=CCN(Cc4nc5ccc(C(=O)O)cc5n4C[C@@H]4CCO4)CC3)n2)c(F)c1` [Compound 23, (S)-2-((4-(6-(4-cyano-2-fluorobenzyloxy)pyrazin-2-yl)-5,6-dihydropyridin-1(2H)-yl)methyl)-1-(oxetan-2-ylmethyl)-1 h-benzo[d]imidazole-6-carboxylic acid] the same measures were 8.92 ± 3.70 POC and 18.2 ± 1.51 POC.
For `O=C(O)c1ccc2nc(CN3CC=C(c4cccc(OCc5ccc(Cl)cc5F)c4)CC3)n(C[C@@H]3CCO3)c2c1` [Compound 28, (S)-2-((4-(3-((4-chloro-2-fluorobenzyl)oxy)phenyl)-3,6-dihydropyridin-1(2H)-yl)methyl)-1-(oxetan-2-ylmethyl)-1 h-benzo[d]imidazole-6-carboxylic add] the same measures were 17.6 ± 6.62 POC and 28.5 ± 6.36 POC.
The matching figures for `O=C(O)c1ccc2nc(CN3CC=C(c4ccc(F)c(OCc5ccc(Cl)cc5F)c4)CC3)n(C[C@@H]3CCO3)c2c1` [Compound 29, (S)-2-((4-(3-((4-chloro-2-fluorobenzyl)oxy)-4-fluorophenyl)-3,6-dihydropyridin-1(2H)-yl)methyl)-1-(oxetan-2-ylmethyl)-1 h-benzo[d]imidazole-6-carboxylic acid]: 25.9 ± 1.24 POC and 36.6 ± 7.77 POC.
With `O=C(O)c1ccc2nc(CN3CC=C(c4cncc(OCc5ccc(Cl)cc5F)n4)CC3)n(C[C@@H]3CCO3)c2c1` [Compound 34, (S)-2-((4-(6-(4-chloro-2-fluorobenzyloxy)pyrazin-2-yl)-5,6-dihydropyridin-1(2H)-yl)methyl)-1-(oxetan-2-ylmethyl)-1 h-benzo[d]imidazole-6-carboxylic acid], the “Bmax (POC)” value is reported as 8.88 ± 3.19 POC in experiment [1] and 20.2 ± 1.89 POC in experiment [2].
